Data from US12358915B2, “METTL3 inhibitory compounds” (STORM THERAPEUTICS LTD., priority 2019, dated 2025).
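Further: recombinant His-tagged METTL3 with FLAG-tagged METTL14 from baculovirus, SAH product quantified by mass spectrometry against isotope-labelled internal standards, 60 min at room temperature, scaled between no-RNA and DMSO-only wells.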

What follows are molecules tested against T1, METTL3/14 (Homo sapiens, UniProt Q86U44) (assay: METTL3/14 methyltransferase assay (METTL3_14 RFMS, RapidFire mass spectrometry)). Conditions: 5 nM METTL3/14, 0.2 μM RNA substrate, 0.5 μM SAM; lower limit of the assay IC50=5 nM; Compounds 1-62; read-out: METTL3_14 RFMS IC50.
T1 construct: The enzyme used was full-length his-tagged METTL3; His; made in house
T1 sequence (Q86U44 whole entry): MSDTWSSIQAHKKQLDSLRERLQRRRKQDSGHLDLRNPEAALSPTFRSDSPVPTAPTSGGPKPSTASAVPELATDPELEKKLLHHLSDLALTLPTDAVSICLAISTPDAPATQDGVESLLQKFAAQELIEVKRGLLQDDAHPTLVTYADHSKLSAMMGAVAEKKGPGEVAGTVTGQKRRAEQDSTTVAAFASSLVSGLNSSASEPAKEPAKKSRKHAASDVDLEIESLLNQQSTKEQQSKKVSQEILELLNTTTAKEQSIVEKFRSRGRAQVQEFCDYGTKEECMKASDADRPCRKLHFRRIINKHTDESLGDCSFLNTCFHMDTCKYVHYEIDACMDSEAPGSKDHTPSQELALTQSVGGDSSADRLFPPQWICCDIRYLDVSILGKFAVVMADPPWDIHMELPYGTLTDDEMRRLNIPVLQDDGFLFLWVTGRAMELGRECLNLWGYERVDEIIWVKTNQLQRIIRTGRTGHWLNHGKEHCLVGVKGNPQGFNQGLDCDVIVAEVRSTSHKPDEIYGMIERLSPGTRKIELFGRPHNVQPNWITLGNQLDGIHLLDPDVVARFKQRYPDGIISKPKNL
T1 sequence (Q9HCE5 whole entry partner): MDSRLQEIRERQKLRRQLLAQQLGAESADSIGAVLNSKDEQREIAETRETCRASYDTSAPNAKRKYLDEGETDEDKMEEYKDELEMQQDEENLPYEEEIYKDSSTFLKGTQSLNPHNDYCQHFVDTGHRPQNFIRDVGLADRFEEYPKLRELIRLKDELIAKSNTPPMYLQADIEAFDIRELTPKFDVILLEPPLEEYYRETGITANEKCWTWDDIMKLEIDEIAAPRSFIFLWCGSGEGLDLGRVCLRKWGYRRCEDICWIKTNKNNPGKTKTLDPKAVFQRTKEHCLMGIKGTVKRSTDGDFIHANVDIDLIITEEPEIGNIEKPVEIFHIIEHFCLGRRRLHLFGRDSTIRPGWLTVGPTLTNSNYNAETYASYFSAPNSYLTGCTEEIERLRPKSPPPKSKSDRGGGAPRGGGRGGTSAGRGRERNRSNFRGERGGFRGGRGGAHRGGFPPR
Assay type: biochemical
An IC50 of 1790 nM was found for O=C(NCc1cn2cc(Br)ccc2n1)c1cc(=O)n2ccccc2n1 [Compound 23, N-({6-bromoimidazo[1,2-a]pyridin-2-yl}methyl)-4-oxo-4H-pyrido[1,2-a]pyrimidine-2-carboxamide] in this work.
An IC50 of 945 nM was found for O=C(NCc1cn2cc(C(O)c3ccccc3)ccc2n1)c1cc(=O)n2ccccc2n1 (stereo not shown) [Compound 56, N-({6-[hydroxy(phenyl)methyl]imidazo[1,2-a]pyridin-2-yl}methyl)-4-oxo-4H-pyrido[1,2-a]pyrimidine-2-carboxamide] in this work.
An IC50 of 6070 nM was found for O=C(NCc1cn2cc(Cl)ccc2n1)c1cccc2[nH]ncc12 [Compound 4, N-({6-chloroimidazo[1,2-a]pyridin-2-yl}methyl)-1H-indazole-4-carboxamide] in this work.
An IC50 of 2210 nM was found for O=C(NCc1cn2cc(F)ccc2n1)c1cc(=O)n2ccccc2n1 [Compound 22, N-({6-fluoroimidazo[1,2-a]pyridin-2-yl}methyl)-4-oxo-4H-pyrido[1,2-a]pyrimidine-2-carboxamide] in this work.
An IC50 of 5870 nM was found for Cn1cnc(CNc2ccc3nc(CNC(=O)c4cccc5[nH]ncc45)cn3c2)c1 [Compound 33, N-[(6-{[(1-methyl-1H-imidazol-4-yl)methyl]amino}imidazo[1,2a]pyridin-2-yl)methyl]-1H-indazole-4-carboxamide] in this work.
An IC50 of 8410 nM was found for Cc1ccc2nc(CNC(=O)c3ccc4[nH]ncc4c3)cn2c1 [Compound 20, N-({6-methylimidazo[1,2-a]pyridin-2-yl}methyl)-1H-indazole-5-carboxamide] in this work.
An IC50 of 4100 nM was found for Cc1ccn2cc(CNC(=O)c3cc(Br)cc4[nH]ncc34)nc2c1 [Compound 11, 6-bromo-N-({7-methylimidazo[1,2-a]pyridin-2-yl}methyl)-1H-indazole-4-carboxamide] in this work.
An IC50 of 702 nM was found for CC(O)c1ccc2nc(CNC(=O)c3cc(=O)n4ccccc4n3)cn2c1 (stereo not shown) [Compound 57, N-{[6-(1-hydroxyethyl)imidazo[1,2-a]pyridin-2-yl]methyl}-oxo-4H-pyrido[1,2-a]pyrimidine-2-carboxamide] in this work.
An IC50 of 7340 nM was found for O=C(NCc1cn2cc(NCc3cccnc3)ccc2n1)c1cccc2[nH]ncc12 [Compound 32, N-[(6-{[(pyridin-3-yl)methyl]amino}imidazo[1,2-a]pyridin-2-yl)methyl]-1H-indazole-4-carboxamide] in this work.

Same assay, conditions: 5 nM METTL3/14, 0.2 μM RNA substrate, 0.5 μM SAM; lower limit of the assay IC50=5 nM; Compounds 63-265; read-out: METTL3_14 RFMS IC50
An IC50 of 57.6 nM was found for O=C(NCc1cn2cc(CNCC3(F)CCCCC3)ccc2n1)c1cc(=O)n2ccccc2n1 [Compound 91, N-{[6-({[(1-fluorocyclohexyl)methyl]amino}methyl)imidazo [1,2-a]pyridin-2-yl]methyl}-4-oxo-4H-pyrido[1,2-a]pyrimidine-2-carboxamide] in this work.
An IC50 of 44.1 nM was found for O=C(NCc1cn2cc(CNCC3(F)CCCC3)ccc2n1)c1cc(=O)n2ccccc2n1 [Compound 198, N-{[6-({[(1-fluorocyclopentyl)methyl]amino}methyl)imidazo [1,2-a]pyridin-2-yl]methyl}-4-oxo-4H-pyrido [1,2-a]pyrimidine-2-carboxamide] in this work.
An IC50 of 43.5 nM was found for O=C(NCc1cn2cc(CNC3CCC(F)(F)CC3)ccc2n1)c1cc(=O)n2ccccc2n1 [Compound 115, N-[(6-{[(4,4-difluoro-cyclohexyl)amino]methyl}imidazo [1,2-a]pyridin-2-yl)methyl]-4-oxo-4H-pyrido [1,2-a]pyrimidine-2-carboxamide] in this work.
An IC50 of 3440 nM was found for COc1cccc2c1OCC(c1ccc3nc(CNC(=O)c4cc(=O)n5ccccc5n4)cn3c1)NC2 (stereo not shown) [Example 234, N-{[6-(9-methoxy-2,3,4,5-tetrahydro-1,4-benzoxazepin-3-yl)imidazo[1,2-a]pyridin-2-yl]methyl}-4-oxo-4H-pyrido[1,2-a]pyrimidine-2-carboxamide] in this work.
An IC50 of 59.7 nM was found for O=C(NCc1cn2cc(CN3CCC(F)CC3)ccc2n1)c1cc(=O)n2ccccc2n1 [Compound 144, N-({6-[(4-fluoropiperidin-1-yl)methyl]imidazo[1,2-a]pyridin-2-yl}methyl)-4-oxo-4H-pyrido[1,2-a]pyrimidine-2-carboxamide] in this work.
An IC50 of 8070 nM was found for CC(=O)N1CCN(Cc2ccc3nc(CNC(=O)c4cc(=O)n5ccccc5n4)cn3c2)CC1 [Compound 167, N-({6-[(4-acetylpiperazin-1-yl)methyl]imidazo[1,2-a]pyridin-2-yl}methyl)-4-oxo-4H-pyrido[1,2-a]pyrimidine-2-carboxamide] in this work.
An IC50 of 6600 nM was found for O=C(NCc1cn2cc(C(F)(F)F)ccc2n1)c1cc(=O)n2ccccc2n1 [Compound 65, 4-oxo-N-{[6-(trifluoromethyl)imidazo[1,2-a]pyridin-2-yl]methyl}-4H-pyrido[1,2-a]pyrimidine-2-carboxamide] in this work.
An IC50 of 909 nM was found for Nc1ccc(C(=O)NCc2cn3cc(CNCC4CCCCC4)ccc3n2)cn1 [Compound 176, 6-amino-N-[(6-{[(cyclohexylmethyl)amino]methyl}imidazo[1,2-a]pyridin-2-yl)methyl] pyridine-3-carboxamide] in this work.
An IC50 of 119 nM was found for O=C(NCc1cn2cc(CNC3CCCOC3)ccc2n1)c1cc(=O)n2ccccc2n1 (stereo not shown) [Compound 124, N-[(6-{[(oxan-3-yl)amino]methyl}imidazo[1,2-a]pyridin-2-yl)methyl]-4-oxo-4H-pyrido [1,2-a]pyrimidine-2-carboxamide] in this work.
An IC50 of 8140 nM was found for CC(C)(C)OC(=O)NCCc1ccc2nc(CNC(=O)c3cc(=O)n4ccccc4n3)cn2c1 [Compound 67, tert-butyl N-(2-{2-[({4-oxo-4H-pyrido[1,2-a]pyrimidin-2-yl}formamido)methyl]imidazo [1,2-a]pyridin-6-yllethyl) carbamate] in this work.
An IC50 of 8370 nM was found for CC(C)(C)CN1CCOCC1c1ccc2nc(CNC(=O)c3cc(=O)n4ccccc4n3)cn2c1 (stereo not shown) [Example 232, N-({6-[4-(2,2-dimethylpropyl)morpholin-3-yl]imidazo[1,2-a]pyridin-2-yl}methyl)-4-oxo-4H-pyrido[1,2-a]pyrimidine-2-carboxamide] in this work.
An IC50 of 15 nM was found for CC1(CNCc2ccc3nc(CNC(=O)c4cc(=O)n5ccccc5n4)cn3c2)CCCCC1 [Compound 106, N-{[6-({[(1-methylcyclohexyl)methyl]amino}methyl)imidazo [1,2-a]pyridin-2-yl]methyl}-4-oxo-4H-pyrido [1,2-a]pyrimidine-2-carboxamide] in this work.
An IC50 of 25.5 nM was found for O=C(NCc1cn2cc(CNCCC(F)(F)F)ccc2n1)c1cc(=O)n2ccccc2n1 [Compound 85, 4-oxo-N-[(6-{[(3,3,3-trifluoropropyl)amino]methyl}imidazo[1,2-a]pyridin-2-yl)methyl]-4H-pyrido[1,2-a]pyrimidine-2-carboxamide] in this work.
An IC50 of 16.8 nM was found for CC1(CNCc2ccc3nc(CNC(=O)c4cc(=O)n5ccccc5n4)cn3c2)CC1 [Compound 121, N-{[6-({[(1-methylcyclopropyl)methyl]amino}methyl)imidazo [1,2-a]pyridin-2-yl]methyl}-4-oxo-4H-pyrido [1,2-a]pyrimidine-2-carboxamide] in this work.
An IC50 of 102 nM was found for O=C(NCc1cn2cc(CNC3CC(F)(F)C3)ccc2n1)c1cc(=O)n2ccccc2n1 [Compound 110, N-[(6-{[(3,3-difluorocyclobutyl)amino]methyl}imidazo[1,2-a]pyridin-2-yl)methyl]-4-oxo-4H-pyrido[1,2-a] pyrimidine-2-carboxamide] in this work.
An IC50 of 16.4 nM was found for CC(C)(C)CNCc1ccc2nc(CNC(=O)c3cc(=O)n4ccccc4n3)cn2c1 [Compound 113, N-[(6-{[(2,2-dimethylpropyl)amino]methyl}imidazo[1,2-a]pyridin-2-yl)methyl]-4-oxo-4H-pyrido[1,2-a] pyrimidine-2-carboxamide] in this work.
An IC50 of 61.1 nM was found for CC(C)(F)CNCc1ccc2nc(CNC(=O)c3cc(=O)n4ccccc4n3)cn2c1 [Compound 202, N-[(6-{[(2-fluoro-2-methylpropyl)amino]methyl}imidazo[1,2-a]pyridin-2-yl)methyl]-4-oxo-4H-pyrido[1,2-a] pyrimidine-2-carboxamide] in this work.
An IC50 of 225 nM was found for CC(C)(C)C1CCC(NCc2ccc3nc(CNC(=O)c4cc(=O)n5ccccc5n4)cn3c2)CC1 (stereo not shown) [Compound 162, N-[(6-{[(4-tert-butylcyclohexyl)amino]methyl}imidazo[1,2-a]pyridin-2-yl)methyl]-4-oxo-4H-pyrido[1,2-a] pyrimidine-2-carboxamide] in this work.
An IC50 of 25.1 nM was found for CC1(NCc2ccc3nc(CNC(=O)c4cc(=O)n5ccccc5n4)cn3c2)CCCCC1 [Compound 146, N-[(6-{[(1-methylcyclohexyl)amino]methyl}imidazo[1,2-a]pyridin-2-yl)methyl]-4-oxo-4H-pyrido[1,2-a]pyrimidine-2-carboxamide] in this work.

Same assay, conditions: 5 nM METTL3/14, 0.2 μM RNA substrate, 0.5 μM SAM; lower limit of the assay IC50=5 nM; Compounds 266-351; read-out: METTL3_14 RFMS IC50
An IC50 of 4160 nM was found for c1cc(-n2cc(Cc3cn4ccccc4n3)nn2)c2cn[nH]c2c1 [Example 336, 4-(4-(imidazo[1,2-a]pyridin-2-ylmethyl)-1H-1,2,3-triazol-1-yl)-1H-indazole] in this work.
An IC50 of 6810 nM was found for CC(=O)N(Cc1ccc2nc(CNC(=O)c3cc(=O)n4ccccc4n3)cn2c1)CC1CCC1 [Example 340, N-[(6-{[N-(cyclobutylmethyl)acetamido]methyl}imidazo[1,2-a]pyridin-2-yl)methyl]-4-oxo-4H-pyrido[1,2-a]pyrimidine-2-carboxamide] in this work.
An IC50 of 186 nM was found for CC1(C)CCN(Cc2ccc3nc(CNC(=O)c4cc(=O)c5c(F)cccc5o4)cn3c2)CC1 [Example 310, N-[[6-[(4,4-dimethyl-1-piperidyl)methyl]imidazo[1,2-a]pyridin-2-yl]methyl]-5-fluoro-4-oxo-chromene-2-carboxamide] in this work.
An IC50 of 233 nM was found for O=C(NCCO)c1cc(-c2cn(Cc3cn4cc(CNCC5CCC5)ccc4n3)nn2)c2cn[nH]c2c1 [Example 301] in this work.
An IC50 of 6.1 nM was found for CC(C)(C)CNCc1ccc2nc(Cn3cc(-c4cc(Cl)cc5[nH]ncc45)nn3)cn2c1 [Example 304, N-[[2-[[4-(6-chloro-1H-indazol-4-yl)triazol-1-yl]methyl]imidazo[1,2-a]pyridin-6-yl]methyl]-2,2-dimethyl-propan-1-amine] in this work.

Same assay, conditions: read-out: METTL3_14 RFMS IC50
An IC50 of 7110 nM was found for O=C(NCc1cn2cc(C(Cc3ccccc3)N(CC3CCC3)CC3CCC3)ccc2n1)c1cc(=O)n2ccccc2n1 (stereo not shown) [Example 314] in this work.
